Data taken from patent US20250250265A1, “BENZOTHIAZOLE-PHENYLSULFONYL-PIPERIDINE ANALOGS AS ACTIVATORS OF NACYLPHOSPHATIDYLETHANOLAMINE HYDROLYZING PHOSPHOLIPASE D” (priority 2022, published 2025).
Entries after “also recorded” stand apart in the source; their conditions may differ.

Key:
[1] = system: bone marrow-derived macrophages (BMDM); assay: Efferocytosis assay with bone marrow-derived macrophages and apoptotic Jurkat cells; type: cell-based, mouse; conditions: 10 μM; for effect on efferocytosis by wild-type BMDM: 6 h before assay
Method: Male C57BL6/j wild-type or Napepld^−/− mice were euthanized with isoflurane and hind legs were removed. Marrow was flushed from femurs and tibias using DMEM containing 4.5 g/L glucose and a 26-gauge needle. Cell suspensions were passed over a 40-μm filter, centrifuged at 500×g, and resuspended in 50 ml of DMEM containing 4.5 g/L glucose, 20% L-cell conditioned media, 10% heat-inactivated FBS, and 1% penicillin/streptomycin. 10 ml of cell suspension was plated into each of five 100-mm dishes and incubated for four days at 37° C. and 5% CO2. On day four, non-adherent cells and debris were aspirated from the plates and replaced with fresh media. After 7 days of differentiation, cells were harvested for use in experiments.
Assays were performed according to previously described protocols. See e.g., Doran et al. J. Clin. Invest. 127(11): 4075-4089 (2017); Proto et al., Immunity 49(4): 666-677 (2018). Bone marrow-derived macrophages were seeded at 0.25×10^6 cells/well in a non-tissue culture-treated 24-well plate and allowed to adhere overnight. Macrophages were treated with various compounds at a final concentration of 10 μM or DMSO as a vehicle for 6 hours prior to each experiment. Jurkat cells were exposed to UV light (254 nm) for 5 minutes to induce apoptosis and then incubated in a 37° C. incubator with 5% CO2 for 2 hours. Surveillance staining of these cells routinely yielded approximately 80-90% apoptosis (Annexin V+) using this method. Apoptotic Jurkat cells were labeled with either CellVue Claret (Millipore Sigma) or Cell Trace Violet (Invitrogen) per the manufacturer's instructions. After staining, cells were resuspended in macrophage medium at a density of […] and 500 μL of this suspension was added to the drug-containing media on the macrophages to achieve a cell ratio of 3:1 Jurkats: macrophages. After incubating for 45 minutes at 37° C. and 5% CO2, the medium was aspirated, and the macrophages were gently washed twice with PBS to remove unbound apoptotic cells. Macrophages were then removed from the plate using Cell Stripper (Sigma), washed, resuspended in staining buffer consisting of 2% FBS in PBS with 2 mM EDTA, and blocked with anti-mouse CD16/32 antibodies for 15 minutes on ice. After blocking, cells were pelleted and resuspended with F4/80. Cells were incubated for 45 minutes on ice in the dark, then washed and resuspended in staining buffer for analysis. Cells were analyzed using an Attune NxT cytometer (Thermo Fisher) and data were analyzed using FlowJo software to quantify the proportion of F4/80^+ macrophages that co-stained for apoptotic cells (% efferocytosis).

[2] = molecular target: T1, recombinant mouse NAPE-PLD (Mus musculus, UniProt Q8BH82); assay: LC/MS NAPE-PLD assay with N-oleoyl-phosphatidylethanolamine (NOPE) as substrate; type: biochemical; conditions: NOPE 90 min (FIG. 19A)
T1 construct: hexahistidine (His6) (C); made in house; host or cells: E. coli
T1 sequence (Q8BH82 1-396): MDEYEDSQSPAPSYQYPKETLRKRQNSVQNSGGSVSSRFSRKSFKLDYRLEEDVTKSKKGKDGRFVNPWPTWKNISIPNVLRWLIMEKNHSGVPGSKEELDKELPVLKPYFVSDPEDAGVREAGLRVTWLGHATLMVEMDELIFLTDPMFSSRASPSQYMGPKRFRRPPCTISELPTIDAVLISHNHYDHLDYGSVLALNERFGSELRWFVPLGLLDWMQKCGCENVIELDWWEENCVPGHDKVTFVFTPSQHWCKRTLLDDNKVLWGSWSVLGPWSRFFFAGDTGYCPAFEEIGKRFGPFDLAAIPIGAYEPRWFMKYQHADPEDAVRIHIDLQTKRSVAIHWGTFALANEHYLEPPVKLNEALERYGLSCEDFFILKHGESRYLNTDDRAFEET
Method: For LC/MS assays, N-oleoyl-PE was added as substrate after […] pre-incubation with compound VU534, VU533, VU233 or vehicle. 90 min after N-oleoyl-PE was added, the reaction was quenched by adding 3 volumes of ice-cold methanol containing [^2H4]OEA and [^2H4]N-palmitoyl-PE and then 6 volumes of ice-cold chloroform.33 The lower phase was dried under nitrogen gas and dissolved in 100 μL mobile phase A. High performance liquid chromatography was performed using a 2.1 mm C18 guard column (Phenomenex AJ0-8782), and a rapid gradient ramp. Mobile phase A was 5:1:4 (v/v/v) isopropanol: methanol: water, with 0.2% v/v formic acid, 0.66 mM ammonium formate and 3 μM phosphoric acid included as additives. Mobile phase B was 0.2% (v/v) formic acid in isopropanol. Initial column conditions were 5% mobile phase B, followed by gradient ramp to 95% B over 0.5 min, held at 95% B for 2 min, the returned to initial conditions (5% B) over 1 min. Flow rate throughout was 100 μL/min. Injection volume was 2 μL. The sample injector needle was washed before each injection using a strong wash of methanol, and a weak wash of 1:1:1:1 (v/v/v/V) isopropanol: methanol: acetonitrile: water, with 0.2% formic acid, 0.3 mM ammonium formate, and 0.37 mM phosphoric acid included as additives. Multiple reaction monitoring for the following ions were monitored: OEA [M+H]^+: m/z 326.3→m/z 62.1; [^2H4]OEA [M+H]^+: m/z 330.3→m/z 66.1; N-oleoyl-PE [M+NH4]^+: m/z 693.5→m/z 308.3 (quantifier), m/z 693.5→m/z 271.2 (qualifier); [^2H4]N-palmitoyl-PE [M+NH4]^+: m/z 1003.8→m/z 286.3 (quantifier), m/z 1003.8→m/z 603.5 (qualifier). […]
To confirm the results of the fluorescence-based assays, an orthogonal biochemical Nape-pld assay based on LC/MS was employed. Recombinant mouse NAPE-PLD was pre-treated with VU534, VU533, VU233 or vehicle for 30 min, then N-oleoyl-phosphatidylethanolamine (NOPE) was added for 90 min, and the resulting levels of OEA and NOPE was measured by LC/MS. […]

| Compound | effect on efferocytosis by wild-type BMDM [1] | effect on OEA/NOPE ratio [2] | effect on efferocytosis by Napepld−/− (KO) BMDM ([1]; 6 h, KO BMDM (FIG. 21C)) | effect on efferocytosis by WT BMDM in WT versus KO experiment ([1]; 6 h, WT BMDM (FIG. 21C)) |
| --- | --- | --- | --- | --- |
| Cc1ccc(C)c2sc(NC(=O)C3CCN(S(=O)(=O)c4ccc(F)cc4)CC3)nc12 [VU533] | significantly enhanced efferocytosis | significantly increased the OEA/NOPE ratio |  |  |
| Cc1cc(C)c2sc(NC(=O)C3CCN(S(=O)(=O)c4ccc(F)cc4)CC3)nc2c1 [VU534, N-(5,7-Dimethylbenzo[d]thiazol-2-yl)-1-((4-fluorophenyl)sulfonyl)piperidine-4-carboxamide] | increases efferocytosis capacity; also recorded: significantly enhanced efferocytosis | significantly increased the OEA/NOPE ratio | had no effect | significantly increased efferocytosis |
| O=C(Nc1nc2ccccc2s1)C1CCN(S(=O)(=O)c2ccc(F)c(Cl)c2)CC1 [VU233] | modestly reduced efferocytosis | no significant effect |  |  |
